Assay results: patent US4767865A, “3'-pyridinylalkylinden- and 3'-pyridinylalkylindol-2-carboxylic acids and analogs” (The Upjohn Company, priority 1987, dated 1988)
Structures can show the parent of a compound that is named as a salt. Where two headings read alike, the source gives them in different places.

Tests used:
TXA2 synthetase = molecular target: T1, TXA2 synthetase (Homo sapiens, UniProt P24557); assay: TXA2 synthetase inhibition: TXA2 produced by mixing PGH2 and HPM, measured by response of the rabbit aorta; assay type: biochemical; details: test compound added to HPM 5 minutes before mixing with PGH2, approximate
T1 construct: from tissue; host or cells: HPM (read as human platelet microsomes)
T1 sequence (P24557 1-533): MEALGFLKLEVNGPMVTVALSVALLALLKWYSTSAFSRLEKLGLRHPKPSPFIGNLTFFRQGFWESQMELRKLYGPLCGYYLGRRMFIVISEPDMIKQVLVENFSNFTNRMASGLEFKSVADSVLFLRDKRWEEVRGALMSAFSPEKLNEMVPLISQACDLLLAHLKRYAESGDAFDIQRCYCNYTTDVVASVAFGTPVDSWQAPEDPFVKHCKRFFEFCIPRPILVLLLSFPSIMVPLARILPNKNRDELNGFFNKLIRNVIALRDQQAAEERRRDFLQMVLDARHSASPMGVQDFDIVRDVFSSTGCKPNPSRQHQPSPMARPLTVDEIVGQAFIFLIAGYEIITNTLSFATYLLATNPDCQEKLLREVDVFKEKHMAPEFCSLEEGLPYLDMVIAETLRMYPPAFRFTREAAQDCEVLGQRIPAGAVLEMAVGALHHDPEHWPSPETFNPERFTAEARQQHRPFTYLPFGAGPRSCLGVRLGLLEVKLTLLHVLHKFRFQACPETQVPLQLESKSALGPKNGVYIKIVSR
Method: Potential inhibitors were tested by comparing the response of the rabbit aorta to the amount of TXA2 produced by mixing PGH2 and HPM without the test compound in the reaction medium and then the amount of TXA2 produced when the test compound was added to the HPM 5 minutes before the HPM was mixed with PGH2. […] For a discussion of TXA2 synthetase inhibition testing see, e.g., R. Gorman, supra.

thromboxane synthetase = assay: Inhibition of Thromboxane A2 biosynthesis in platelet rich plasma; assay type: cell-based; details: at 1 μg/ml
Method: In this system, 6-(3-pyridylmethyl)indene-2-carboxylic acid inhibited thromboxane synthetase 95% as compared to control at 1 μg/ml.

SMILES	IC50 (TXA2 synthetase; read-out: approximate ED50 (lower bound))	IC50 (TXA2 synthetase; read-out: approximate ED50 (upper bound))	inhibited thromboxane synthetase as compared to control (thromboxane synthetase)
O=C(O)c1cc2cc(NCc3cccnc3)ccc2[nH]1 [Sodium Salt]	> 346 nM	< 3460 nM	–
O=C(O)C1=Cc2ccc(Cc3cccnc3)cc2C1 [6-(3-Pyridylmethyl)indene-2-carboxylic Acid]	–	–	95%
